Reference: patent US6455558B1, “Biocide composition and use” (Avecia Limited, priority 1998, dated 2002)
Values joined by “and” are separate entries in the source; they are usually repeats but may differ in a detail not shown here. Equal values may be shown once.

System: mixed inoculum of Aureobasidium pullulans, Fusarium solani, Penicillium funicularum, Scopulariopsis brevicaulis and Streptoverticillium waksmanii
Assay: Soil burial test of plasticised PVC strips containing biocide: weight loss after 20 weeks

Molecule | Actual % Weight Loss
CCCCCCCCn1sccc1=O [OIT, N-n-octyl isothiazolin-3-one] | 3.47% and 4.516% and 4.992% and 5.465%
Zinc Omadine [ZO] | 4.011% and 3.557% and 3.318% and 2.179%
